Results from PMC5854716, “Synthesis, molecular docking, ctDNA interaction, DFT calculation and evaluation of antiproliferative and anti-Toxoplasma gondii activities of 2,4-diaminotriazine-thiazole derivatives” (Medicinal Chemistry Research, 2018).

Legend:
[1] = tested on: human lung carcinoma A549 cells; assay: In vitro antiproliferative assay (SRB), A549; assay type: cell-based; settings: mean ± SD; for IC50: Homo sapiens, A549, 72 h exposure
Protocol: (§1) Biphenotypic B myelomonocytic leukemia MV4-11, human lung carcinoma A549, human breast carcinoma MCF-7, and normal mouse fibroblast BALB/3T3 cells were obtained from American Type Culture Collection (Rockville, Maryland, USA). All the cell lines are being maintained at the Institute of Immunology and Experimental Therapy, Wroclaw, Poland. MV4-11 cells were cultured in RPMI 1640 medium (Gibco, UK) with 2 mM L-glutamine adjusted to contain 1.0 mM sodium pyruvate, and 10% fetal bovine serum (FBS) (all from Sigma-Aldrich, Germany). A549 cells were cultured in RPMI 1640+ Opti-MEM (1:1) (both from Gibco, UK), MCF-7 cells in Eagle medium (IIET, Wroclaw, Poland), BALB/3T3 in Dulbecco medium (IIET, Poland) supplemented with 2 mM L-glutamine and 1.0 mM sodium pyruvate, 10% fetal bovine serum (all from Sigma-Aldrich, Germany). The MCF-7 cell culture was supplemented with 0.8 mg/l of insulin (Sigma-Aldrich, Germany). All culture media were supplemented with 100 units/ml penicillin, and 100 µg/ml streptomycin (both from Polfa Tarchomin S.A., Poland). All cell lines were grown at 37 °C with 5% CO2 humidified atmosphere (Łączkowski et al. [2014], [2016a]). Prior to usage, the compounds were dissolved in DMSO and culture medium (1: 9) to the concentration of 1 mg/ml, and subsequently diluted in culture medium to reach the required concentrations (0.1, 1, 10, and 100 µg/ml) (Łączkowski et al. [2014], [2016a]). Twenty-four hours prior to the addition of the tested compounds, the cells counted using Burker hemocytometer were plated in 96-well plates (Sarstedt, Germany) at a density of 1 × 10^4 cells per well. The assay was performed after 72 h of exposure to varying concentrations of the tested agents. The in vitro cytotoxic effect of all agents was examined using the SRB assay for adherent cells (A549, MCF-7, and BALB/3T3) or MTT assay for leukemia cells (MV4-11) as described previously. […] Each compound in each concentration was tested in triplicate in a single experiment, which was repeated 3–7 times (Rubinstein et al. [1990]; Bramson et al. [1995]). Cells were attached to the bottom of plastic wells by fixing them with cold 50% TCA (trichloroacetic acid, POCH, Gliwice, Poland) on top of the culture medium in each well. The plates were incubated at 4 °C for 1 h and then washed five times with tap water. The cellular material fixed with TCA was stained with 0.1% sulforhodamine B (SRB, Sigma-Aldrich, Germany) and dissolved in 1% acetic acid (POCH, Gliwice, Poland) for 30 min. Unbound dye was removed by rinsing (4×) in 1% acetic acid. The protein-bound dye was extracted with 10 mM unbuffered Tris base (Sigma-Aldrich, Germany) for determination of the optical density (λ = 540 nm) in a computer-interfaced, 96-well Synergy H4 (BioTek Instruments USA) photometer microtiter plate reader (Sidoryk et al. [2012]).

[2] = tested on: human breast carcinoma MCF-7 cells; assay: In vitro antiproliferative assay (SRB), MCF-7; assay type: cell-based; settings: Homo sapiens, MCF7, 72 h exposure, mean ± SD
Protocol: as §1

[3] = Cell viability assay (MTT), VERO; assay type: cell-based, Cercopithecus aethiops; settings: African green monkey (Cercopithecus aethiops), VERO kidney epithelial cells
Outline: (§2)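 L929 and VERO cells seeded at 1.0 × 10^4/well, attached 24 h, then exposed 24 h to compounds at 0.9–125.00 μg/ml (from DMSO stock). MTT (1 mg/ml) added for 2 h at 37 °C, formazan dissolved in DMSO, OD read at 550 nm. Viability expressed as percentage of 2.5% DMSO-treated controls; triplicate.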

[4] = tested on: normal mouse fibroblast Balb/3T3 cells; assay: In vitro cytotoxicity (SRB), Balb/3T3; assay type: cell-based; settings: Mus musculus, BALB/3T3, 72 h exposure, mean ± SD
Protocol: as §1

[5] = Cell viability assay (MTT), L929; assay type: cell-based, Mus musculus; settings: mouse, L929 fibroblast cells
Outline: as §2

SMILES | IC50 [1] [µg/mL] | IC50 [2] [µg/mL] | viability at 24 h, 0.9 µg/ml [3] [%] | viability at 24 h, 1.8 µg/ml [3] [%] | viability at 24 h, 3.9 µg/ml [3] [%] | viability at 24 h, 7.8 µg/ml [3] [%] | viability at 24 h, 15.6 µg/ml [3] [%] | viability at 24 h, 31.2 µg/ml [3] [%] | viability at 24 h, 62.5 µg/ml [3] [%] | viability at 24 h, 125 µg/ml [3] [%] | IC50 [4] [µg/mL] | melting point [°C] | viability at 24 h, 0.9 µg/ml [5] [%] | viability at 24 h, 1.8 µg/ml [5] [%] | viability at 24 h, 3.9 µg/ml [5] [%] | viability at 24 h, 7.8 µg/ml [5] [%] | viability at 24 h, 15.6 µg/ml [5] [%] | viability at 24 h, 31.2 µg/ml [5] [%] | viability at 24 h, 62.5 µg/ml [5] [%] | viability at 24 h, 125 µg/ml [5] [%] | other results
C/C(=N\Nc1nc(-c2ccc(Br)cc2)cs1)c1ccc(Nc2nc(N)nc(N)n2)cc1 [Compound 4d, (E)-N^2-(4-(1-(2-(4-(4-bromophenyl)-1,3-thiazol-2-yl)hydrazinylidene)ethyl)phenyl)-1,3,5-triazine-2,4,6-triamine] | 24.7 ± 6.1 | 3.18 ± 0.192 | 99.9 | 94.4 | 90.1 | 86 | 104 | 114 | 100 | 112 | 65.2 ± 24.5 | 226 to 230 | 99.9 | 97.8 | 99.9 | 93.7 | 108 | 113 | 115 | 113 | 
C/C(=N\Nc1nc(-c2ccc(I)cc2)cs1)c1ccc(Nc2nc(N)nc(N)n2)cc1 [Compound 4e, (E)-N^2-(4-(1-(2-(4-(4-iodophenyl)-1,3-thiazol-2-yl)hydrazinylidene)ethyl)phenyl)-1,3,5-triazine-2,4,6-triamine] | 45.4 ± 18.3 | 8.41 ± 0.373 | 100 | 100 | 97 | 87.3 | 101 | 113 | 117 | 113 | > 100 | 248 to 251 | 96 | 97.6 | 99.1 | 88.8 | 98.8 | 108 | 109 | 101 | 
C/C(=N\Nc1nc(-c2ccccc2)cs1)c1ccc(Nc2nc(N)nc(N)n2)cc1 [Compound 4k, (E)-N^2-(4-(1-(2-(4-phenyl-1,3-thiazol-2-yl)hydrazinylidene)ethyl)phenyl)-1,3,5-triazine-2,4,6-triamine] |  | 5.73 ± 2.05 | 91.9 | 95.5 | 99.3 | 95.7 | 104 | 106 | 113 | 113 | > 100 | > 300 | 109 | 107 | 106 | 101 | 106 | 111 | 116 | 130 | IC50 A549 ([1]; 72 h exposure): no antiproliferative activity
C/C(=N\Nc1nc(-c2ccc(Cl)cc2)cs1)c1ccc(Nc2nc(N)nc(N)n2)cc1 [Compound 4b, (E)-N^2-(4-(1-(2-(4-(4-chlorophenyl)-1,3-thiazol-2-yl)hydrazinylidene)ethyl)phenyl)-1,3,5-triazine-2,4,6-triamine] | 23.8 ± 4.41 | 3.23 ± 0.401 | 93.5 | 95.8 | 90.1 | 94.7 | 103 | 115 | 115 | 113 | > 100 | 237 to 239 | 94.8 | 95.3 | 99.4 | 99.4 | 110 | 113 | 119 | 118 | 
C/C(=N\Nc1nc(-c2ccc(F)cc2)cs1)c1ccc(Nc2nc(N)nc(N)n2)cc1 [Compound 4a, (E)-N^2-(4-(1-(2-(4-(4-fluorophenyl)-1,3-thiazol-2-yl)hydrazinylidene)ethyl)phenyl)-1,3,5-triazine-2,4,6-triamine] | 38.6 ± 4.17 | 4.28 ± 0.984 | 90.5 | 97.6 | 100 | 95.9 | 103 | 107 | 105 | 100 | 62.6 ± 8.69 | 223 to 225 | 96.6 | 101 | 105 | 99 | 102 | 111 | 115 | 111 | 
C/C(=N\Nc1nc(-c2ccc(C)cc2)cs1)c1ccc(Nc2nc(N)nc(N)n2)cc1 [Compound 4c, (E)-N^2-(4-(1-(2-(4-(4-tolyl)-1,3-thiazol-2-yl)hydrazinylidene)ethyl)phenyl)-1,3,5-triazine-2,4,6-triamine] | 62.4 ± 11.5 | 8.33 ± 2.83 | 92.4 | 102 | 99 | 101 | 99.6 | 102 | 112 | 109 | > 100 | 231 to 233 | 98.2 | 95.5 | 98.2 | 92.9 | 102 | 105 | 106 | 118 | 
